The source of these data is BindingDB's records for doi:10.1021/jm00161a033 (1986).

By IC50 is commonly meant the midpoint of a concentration-inhibition curve. Read a high IC50 as a need for much substance.

Structures are written as SMILES.

For the assay, the target named is Aldose reductase (Oryctolagus cuniculus). The assay can be described thus: In vitro inhibition of rabbit lens aldose reductase.
Consider `O=C(O)Cc1ccc2c(c1)OCc1ccccc1C2=O` [Oxepinac], for which inhibition was half-maximal at 330 nM (IC50). Take `O=C(O)Cc1ccc2c(c1)CCc1ccc(O)cc1C2=O` [(7-Hydroxy-5-oxo-10,11-dihydro-5H-dibenzo[a,d]cyclohepten-2-yl)-acetic acid]: the IC50 was 830 nM. `O=C1Cc2ccc3c(c2O1)CCc1ccccc1C3=O` [11,12-Dihydro-3H-1-oxa-benzo[4,5]cyclohepta[1,2-e]indene-2,6-dione] showed an IC50 of 770 nM. In the case of `CC(C(=O)O)c1cc(O)c2c(c1)CCc1ccccc1C2=O` (stereo not given) [2-(4-Hydroxy-5-oxo-10,11-dihydro-5H-dibenzo[a,d]cyclohepten-2-yl)-propionic acid], half-maximal inhibition (IC50) was put at 210 nM. As for `O=C(O)Cc1cc(O)c2c(c1)CCc1ccccc1C2=O` [(4-Hydroxy-5-oxo-10,11-dihydro-5H-dibenzo[a,d]cyclohepten-2-yl)-acetic acid], the IC50 is 110000 nM. `O=C(O)Cc1ccc2c(c1)CCc1ccccc1C2=O` [(5-Oxo-10,11-dihydro-5H-dibenzo[a,d]cyclohepten-2-yl)-acetic acid] returned an IC50 of 160000 nM.

With `O=C(O)Cc1ccc2c(=O)c3ccccc3ccc2c1` [(5-Oxo-5H-dibenzo[a,d]cyclohepten-2-yl)-acetic acid], the IC50 worked out at 1000 nM. In the case of `O=C(O)Cc1ccc2c(c1)CCc1cccc(O)c1C2=O` [(6-Hydroxy-5-oxo-10,11-dihydro-5H-dibenzo[a,d]cyclohepten-2-yl)-acetic acid], the IC50 came to 280000 nM.

`O=C(O)Cc1cc(O)c2c(=O)c3ccccc3ccc2c1` [(4-Hydroxy-5-oxo-5H-dibenzo[a,d]cyclohepten-2-yl)-acetic acid] yielded an IC50 of 760 nM.

On to `CC(C(=O)O)c1cc(O)c2c(=O)c3ccccc3ccc2c1` (stereo not given) [2-(4-Hydroxy-5-oxo-5H-dibenzo[a,d]cyclohepten-2-yl)-propionic acid], for which 2700 nM corresponded to half-maximal inhibition (IC50).
